From patent US20110263016A1, “Expansion of Embryonic Stem Cells” (priority 2008, published 2011)

Tests used:
H9 hESCs = test: Expansion of hESCs in stirred suspension bioreactors; format: cell-based, human
Description: Bioreactor Maintenance of hESCs. H9 cells passaged in static on Matrigel™ or using feeder layers were pre-treated for 1 hr with 10 μM Y-27632 (Sigma), then dissociated as described earlier. The hESCs were then inoculated into 125 ml bioreactors (NDS Technologies) at 1.8×10^4 cells/ml. The bioreactors contained 100 ml of mTeSR medium supplemented with 10 μM Y-27632 and 0.1 nM Rapamycin (Sigma), were agitated at 100 rpm and were incubated under standard conditions (37° C., 5% CO2, saturated humidity). After 24 hrs in suspension culture, the Y-27632 was removed and replaced with mTeSR medium containing 0.1 nM Rapamycin. […] The single cell suspension of hESCs was split 1:5 and inoculated into a new bioreactor containing 100 ml of mTeSR medium supplemented with 10 μM Y-27632 and 0.1 nM Rapamycin for 24 hrs.
In the bioreactor systems, hESCs (collected from static cultures containing Matrigel™ or human foreskin fibroblast feeder (HFF) cells) were inoculated at 1.8×10^4 cells/ml into 100 ml of mTeSR medium (Stemcell Technologies Inc.) and agitated at 100 rpm.

hESCs = details: cited from earlier work

C[C@@H](N)[C@H]1CC[C@H](C(=O)Nc2ccncc2)CC1 [Y-27632]
hESC aggregate formation (H9 hESCs; 10 μM ROCK inhibitor and 0.1 nM Rapamycin together, 1.8×10^4 cells/ml, mTeSR, 100 rpm): form tight aggregates | hESC aggregate formation when the inhibitor is left out (H9 hESCs; ROCK inhibitor excluded from bioreactor cultures, by day 5, data not shown): noticeably fewer aggregates were observed and mainly single cells were observed by day 5 | lag phase of the cultures (H9 hESCs; exposure to ROCK inhibitor decreased from 4 days to 24 hrs): substantial decrease in the lag phase | overall expansion (H9 hESCs; non-passaged cultures, ROCK inhibitor day 0 to day 4, collagenase every 5 days, over 20 days): 67 fold | survival rate of dissociated, single hESCs (hESCs): increases the survival rate
